Measurements as given in patent publication US6663881B2 (priority 1993, dated 2003).
Like-named read-outs stand apart in the source and are kept apart here.

Columns and labels:
[1] = Biodistribution of cytochalasin B after i.p. injection (HPLC); format: in vivo, mice; conditions: 50 mg/kg i.p.
Description: Biodistribution of Cytochalasin B. To determine the biodistribution of cytochalasin B, mice were injected (i.p.) with 50 mg/kg cytochalasin B. Control mice were injected with DMSO/Tween 20/carboxymethyl cellulose (“vehicle”). The mice were sacrificed at 3, 12, 24 and 72 hours after cytochalasin B or vehicle administration. Organs were removed, homogenized, extracted and the amount of cytochalasin B in tissues quantitated by HPLC. About 75% of the cytochalasin B remained in the peritoneal cavity or at the injection site.

[2] = 7 day intravenous toxicity study in rats (Table 11); format: in vivo; conditions: 10 μg/ml IV four times a day for 7 days (800 μg/kg daily)
Description: To determine the toxicity of cytochalasin B, rats (4 male and 4 female) were injected with 10 μg/ml cytochalasin B four times a day for 7 days (Table 11). Data regarding body weight changes, food consumption, food efficiency, hematology parameters, coagulation parameters, serum chemistry parameters, and gross necropsy findings were collected. […] There were no gross or microscopic changes detected in the heart to account for the elevation. Thus, daily administration of cytochalasin B to rats at a dose of 800 μg/kg (for a total injected dose of 5600 μg/kg) may have an effect on heart weight of female (but not male) rats. However, clotted blood was not routinely removed from the heart lumens prior to weighing the heart.

[3] = tested on: balloon traumatized swine coronary arteries; assay: Dose-response study of balloon traumatized swine coronary arteries (Table 14, morphometry); format: in vivo
[4] = tested on: swine coronary arteries traumatized by embolectomy or over-sized PTCA balloon; assay: Swine coronary artery study, MIC catheter infusion, morphometry at 4 weeks (Table 15); format: in vivo; conditions: 8.0 μg/ml
Description: Swine coronary arteries were also traumatized by embolectomy or over-sized PTCA balloon, and then 8-16 ml of cytochalasin B at 8.0 μg/ml was infused into the arterial wall with a MIC catheter to achieve a therapeutic dose. Controls included a diluent control and a traumatized untreated control, and all animals were sacrificed 4 weeks after intervention and coronary arteries were fixed by perfusion. Morphometry was performed on selected sections from proximal, treated and distal segments of coronary arteries (Table 15).

[5] = tested on: balloon traumatized pig femoral artery; assay: Sustained release adventitial wraps on balloon traumatized pig femoral artery (Table 16, Group 12); format: in vivo; conditions: Group 12: 30% wt/wt loaded silicone wraps
Description: To determine the efficacy of the local, sustained release dosage forms of cytochalasin B or taxol to inhibit restenosis, cytochalasin B or taxol in a supporting structure, e.g., a “wrap,” was applied to the adventitial tissue surrounding a balloon traumatized rabbit carotid artery (Groups 1-11) or a balloon traumatized pig femoral artery (Group 12) (Table 16).
While there was intimal proliferation in the arteries 3 weeks later, the proliferation was still less than the proliferation observed for the controls.

[6] = tested on: balloon traumatized left carotid artery; assay: Inter-arterial infusion of crystalline cytochalasin B in balloon traumatized rat carotid artery; format: in vivo, Sprague-Dawley rats
Description: Another study employed twenty, male, Sprague-Dawley rats. The rats underwent balloon trauma to their left carotid artery, followed by inter-arterial infusion of a solution containing 1 mg crystalline cytochalasin B in […] vehicle (Hanks sterile salt solution with 0.5% Cremophor) or a diluent (saline) control. Animals were sacrificed immediately after infusion, and 2, 4, 7 and 14 days post-trauma and infusion. Post-sacrifice, the left and the right (control) carotid arteries were removed. Samples of arteries were obtained for quantitation of ^3H-cytochalasin B by oxidation and scintillation counting, histopathology, autoradiography and vascular morphometry. Histopathology documented uniform, circumferential balloon trauma in the arterial wall of the left carotid arteries.

[7] = tested on: Vascular smooth muscle cells

**Q.** For `C=C1[C@@H](C)[C@H]2[C@H](Cc3ccccc3)NC(=O)[C@]23OC(=O)/C=C/[C@H](O)CCC[C@@H](C)C/C=C/[C@H]3[C@@H]1O` [cytochalasin B], which “organ with the highest amount” value [1] is on record?
**A.** The value was “liver”.

**Q.** And the adverse effect [2]?
**A.** The adverse effect was “elevation of the mean relative heart weight in treated female animals”.

**Q.** And the coronary luminal area ([3]; 0.1, 1.5 or 10.0 μg/ml, three weeks after intervention)?
**A.** Its coronary luminal area is “sustained arterial dilation”.

**Q.** What about the “myocardial or arterial lesions (histology)” value ([3]; in vivo) of the same molecule?
**A.** The value was “did not result in myocardial or arterial lesions”.

**Q.** What about the “arterial remodeling (area bounded by the external elastic lamina)” value [4] of the same molecule?
**A.** The value was “trend toward beneficial arterial remodeling”.

**Q.** What about the luminal area [4] of the same molecule?
**A.** The luminal area was “did not result in a statistically significant increase in luminal area”.

**Q.** And the intimal proliferation [5]?
**A.** The intimal proliferation was “significantly inhibited intimal proliferation for the first two weeks”.

**Q.** What about the “amount present over the treated length of artery” value ([6]; day 0) of the same molecule?
**A.** Its value is “approximately 8 ug”.

**Q.** What about the “amount present over the treated length of artery” value ([6]; day 2) of the same molecule?
**A.** The value was “less than 2 ng”.

**Q.** What about the crystals by autoradiography ([6]; day 4) of the same molecule?
**A.** Its crystals by autoradiography is “not detectable by autoradiography”.

**Q.** What about the “mean luminal area and neointimal area vs diluent control” value ([6]; five treated rats) of the same molecule?
**A.** Its value is “higher mean luminal area and a smaller neointimal area”.

**Q.** What about the “neointima formation vs diluent treated rats” value ([6]; morphometric analysis) of the same molecule?
**A.** Its value is “no statistically significant reduction in neointima formation”.

**Q.** And the Morphological cytotoxicity grade ([7]; 0.01 μg, 24 hrs + 24 hrs)?
**A.** The Morphological cytotoxicity grade was 0.

**Q.** What about the Morphological cytotoxicity grade ([7]; 0.01 μg, 24 hrs + 48 hrs) of the same molecule?
**A.** Its Morphological cytotoxicity grade is 0.

**Q.** And the Morphological cytotoxicity grade ([7]; 0.01 μg, 24 hrs + 72 hrs)?
**A.** Its Morphological cytotoxicity grade is 0.

**Q.** And the Morphological cytotoxicity grade ([7]; 0.01 μg, 24 hrs + 96 hrs)?
**A.** The Morphological cytotoxicity grade was 0.

**Q.** And the Morphological cytotoxicity grade ([7]; 0.01 μg, 24 hrs + 120 hrs)?
**A.** Its Morphological cytotoxicity grade is 0.

**Q.** And the Morphological cytotoxicity grade ([7]; 0.01 μg, Continuous 6 hrs)?
**A.** The Morphological cytotoxicity grade was 0.

**Q.** What about the Morphological cytotoxicity grade ([7]; 0.01 μg, Continuous 24 hrs (first listing)) of the same molecule?
**A.** The Morphological cytotoxicity grade was 0.

**Q.** And the Morphological cytotoxicity grade ([7]; 0.01 μg, Continuous 24 hrs (second listing))?
**A.** Its Morphological cytotoxicity grade is 0.

**Q.** And the Morphological cytotoxicity grade ([7]; 0.01 μg, Continuous 48 hrs)?
**A.** Its Morphological cytotoxicity grade is 0.

**Q.** What about the Morphological cytotoxicity grade ([7]; 0.01 μg, Continuous 72 hrs) of the same molecule?
**A.** Its Morphological cytotoxicity grade is 0.

**Q.** What about the Morphological cytotoxicity grade ([7]; 0.01 μg, Continuous 96 hrs) of the same molecule?
**A.** The Morphological cytotoxicity grade was 0.

**Q.** And the Morphological cytotoxicity grade ([7]; 0.01 μg, Continuous 120 hrs)?
**A.** The Morphological cytotoxicity grade was 0.

**Q.** What about the Morphological cytotoxicity grade ([7]; 0.01 μg, Continuous 168 hrs) of the same molecule?
**A.** Its Morphological cytotoxicity grade is 0.

**Q.** What about the Morphological cytotoxicity grade ([7]; 0.01 μg, Continuous 216 hrs) of the same molecule?
**A.** Its Morphological cytotoxicity grade is 0.

**Q.** And the Morphological cytotoxicity grade ([7]; 0.01 μg, Continuous 264 hrs)?
**A.** The Morphological cytotoxicity grade was 0.

**Q.** And the Morphological cytotoxicity grade ([7]; 0.1 μg, 5 min + 2 hrs)?
**A.** The Morphological cytotoxicity grade was 0.

**Q.** What about the Morphological cytotoxicity grade ([7]; 0.1 μg, 5 min + 24 hrs) of the same molecule?
**A.** The Morphological cytotoxicity grade was 0.

**Q.** What about the Morphological cytotoxicity grade ([7]; 0.1 μg, 5 min + 48 hrs) of the same molecule?
**A.** Its Morphological cytotoxicity grade is 0.

**Q.** And the Morphological cytotoxicity grade ([7]; 0.1 μg, 5 min + 72 hrs)?
**A.** The Morphological cytotoxicity grade was 0.

**Q.** And the Morphological cytotoxicity grade ([7]; 0.1 μg, 5 min + 96 hrs)?
**A.** Its Morphological cytotoxicity grade is 0.

**Q.** What about the Morphological cytotoxicity grade ([7]; 0.1 μg, 5 min + 120 hrs) of the same molecule?
**A.** The Morphological cytotoxicity grade was 0.

**Q.** And the Morphological cytotoxicity grade ([7]; 0.1 μg, 24 hrs + 24 hrs)?
**A.** The Morphological cytotoxicity grade was 0.5.

**Q.** What about the Morphological cytotoxicity grade ([7]; 0.1 μg, 24 hrs + 48 hrs) of the same molecule?
**A.** Its Morphological cytotoxicity grade is 1.

**Q.** What about the Morphological cytotoxicity grade ([7]; 0.1 μg, 24 hrs + 72 hrs) of the same molecule?
**A.** Its Morphological cytotoxicity grade is 0.5.

**Q.** What about the Morphological cytotoxicity grade ([7]; 0.1 μg, 24 hrs + 96 hrs) of the same molecule?
**A.** Its Morphological cytotoxicity grade is 0.

**Q.** And the Morphological cytotoxicity grade ([7]; 0.1 μg, 24 hrs + 120 hrs)?
**A.** The Morphological cytotoxicity grade was 0.

**Q.** What about the Morphological cytotoxicity grade ([7]; 0.1 μg, Continuous 6 hrs) of the same molecule?
**A.** The Morphological cytotoxicity grade was 0.

**Q.** And the Morphological cytotoxicity grade ([7]; 0.1 μg, Continuous 24 hrs (first listing))?
**A.** Its Morphological cytotoxicity grade is 1.

**Q.** And the Morphological cytotoxicity grade ([7]; 0.1 μg, Continuous 24 hrs (second listing))?
**A.** The Morphological cytotoxicity grade was 0.

**Q.** What about the Morphological cytotoxicity grade ([7]; 0.1 μg, Continuous 48 hrs) of the same molecule?
**A.** Its Morphological cytotoxicity grade is 1.

**Q.** What about the Morphological cytotoxicity grade ([7]; 0.1 μg, Continuous 72 hrs) of the same molecule?
**A.** The Morphological cytotoxicity grade was 1.

**Q.** And the Morphological cytotoxicity grade ([7]; 0.1 μg, Continuous 120 hrs)?
**A.** The Morphological cytotoxicity grade was 1.

**Q.** And the Morphological cytotoxicity grade ([7]; 0.1 μg, Continuous 168 hrs)?
**A.** Its Morphological cytotoxicity grade is 1.

**Q.** And the Morphological cytotoxicity grade ([7]; 0.1 μg, Continuous 216 hrs)?
**A.** Its Morphological cytotoxicity grade is 1.

**Q.** And the Morphological cytotoxicity grade ([7]; 0.1 μg, Continuous 264 hrs)?
**A.** Its Morphological cytotoxicity grade is 1.

**Q.** And the Morphological cytotoxicity grade ([7]; 1 μg, 5 min + 2 hrs)?
**A.** The Morphological cytotoxicity grade was 0.

**Q.** And the Morphological cytotoxicity grade ([7]; 1 μg, 5 min + 48 hrs)?
**A.** The Morphological cytotoxicity grade was 1.

**Q.** And the Morphological cytotoxicity grade ([7]; 1 μg, 5 min + 72 hrs)?
**A.** The Morphological cytotoxicity grade was 1.

**Q.** What about the Morphological cytotoxicity grade ([7]; 1 μg, 5 min + 96 hrs) of the same molecule?
**A.** The Morphological cytotoxicity grade was 1.

**Q.** And the Morphological cytotoxicity grade ([7]; 1 μg, 5 min + 120 hrs)?
**A.** Its Morphological cytotoxicity grade is 1.

**Q.** What about the Morphological cytotoxicity grade ([7]; 1 μg, 24 hrs + 24 hrs) of the same molecule?
**A.** Its Morphological cytotoxicity grade is 3.

**Q.** And the Morphological cytotoxicity grade ([7]; 1 μg, 24 hrs + 48 hrs)?
**A.** Its Morphological cytotoxicity grade is 4.

**Q.** And the Morphological cytotoxicity grade ([7]; 1 μg, 24 hrs + 72 hrs)?
**A.** The Morphological cytotoxicity grade was 4.

**Q.** And the Morphological cytotoxicity grade ([7]; 1 μg, 24 hrs + 96 hrs)?
**A.** The Morphological cytotoxicity grade was 4.

**Q.** And the Morphological cytotoxicity grade ([7]; 1 μg, 24 hrs + 120 hrs)?
**A.** Its Morphological cytotoxicity grade is 4.

**Q.** And the Morphological cytotoxicity grade ([7]; 1 μg, Continuous 24 hrs (first listing))?
**A.** Its Morphological cytotoxicity grade is 3.

**Q.** And the Morphological cytotoxicity grade ([7]; 1 μg, Continuous 24 hrs (second listing))?
**A.** Its Morphological cytotoxicity grade is 3.

**Q.** What about the Morphological cytotoxicity grade ([7]; 1 μg, Continuous 48 hrs) of the same molecule?
**A.** Its Morphological cytotoxicity grade is 3.

**Q.** What about the Morphological cytotoxicity grade ([7]; 1 μg, Continuous 72 hrs) of the same molecule?
**A.** The Morphological cytotoxicity grade was 3.

**Q.** What about the Morphological cytotoxicity grade ([7]; 1 μg, Continuous 96 hrs) of the same molecule?
**A.** Its Morphological cytotoxicity grade is 3.

**Q.** What about the Morphological cytotoxicity grade ([7]; 1 μg, Continuous 120 hrs) of the same molecule?
**A.** Its Morphological cytotoxicity grade is 3.

**Q.** And the Morphological cytotoxicity grade ([7]; 1 μg, Continuous 168 hrs)?
**A.** Its Morphological cytotoxicity grade is 4.

**Q.** And the Morphological cytotoxicity grade ([7]; 1 μg, Continuous 216 hrs)?
**A.** The Morphological cytotoxicity grade was 4.

**Q.** What about the Morphological cytotoxicity grade ([7]; 1 μg, Continuous 264 hrs) of the same molecule?
**A.** The Morphological cytotoxicity grade was 4.

**Q.** And the “cytotoxicity grade at in vitro effective dosage” value ([7]; 1 μg/ml, anti-migration/contraction effective dose)?
**A.** Its value is 1.

**Q.** What about the Morphological cytotoxicity grade ([7]; 10 μg, 5 min + 2 hrs) of the same molecule?
**A.** The Morphological cytotoxicity grade was 0.5.

**Q.** What about the Morphological cytotoxicity grade ([7]; 10 μg, 5 min + 24 hrs) of the same molecule?
**A.** Its Morphological cytotoxicity grade is 4.

**Q.** What about the Morphological cytotoxicity grade ([7]; 10 μg, 5 min + 48 hrs) of the same molecule?
**A.** Its Morphological cytotoxicity grade is 4.

**Q.** And the Morphological cytotoxicity grade ([7]; 10 μg, 5 min + 120 hrs)?
**A.** The Morphological cytotoxicity grade was 5.
